Read-outs that look alike come from different tables or passages of the source.
Legend:
[1] = system: LAPC4 prostate cancer cells, which express the AKT1 E17K allele; test: Antiproliferative effects in LAPC4 cells (CellTiter Glo, 72 h); type: cell-based; details: read-out: LAPC4 proliferation IC50
Method in brief: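 Luminescent ATP read-out (CellTiter Glo) after 72 h compound exposure; 1,000 cells/well in IMDM + 12% FBS + 1% P/S. IC50 by Hill equation fit of luminescence vs. log(inhibitor).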

AKT1 WT = target: T1, AKT1 WT (Homo sapiens, UniProt P31749); test: Live cell AKT1 WT target engagement by NanoBRET competitive probe displacement in HEK293 cells; type: binding; details: 2 h at 37° C., read-out: AKT1 WT IC50
T1 construct: expressed in transfected cells; host or cells: HEK293
T1 sequence (P31749 whole entry): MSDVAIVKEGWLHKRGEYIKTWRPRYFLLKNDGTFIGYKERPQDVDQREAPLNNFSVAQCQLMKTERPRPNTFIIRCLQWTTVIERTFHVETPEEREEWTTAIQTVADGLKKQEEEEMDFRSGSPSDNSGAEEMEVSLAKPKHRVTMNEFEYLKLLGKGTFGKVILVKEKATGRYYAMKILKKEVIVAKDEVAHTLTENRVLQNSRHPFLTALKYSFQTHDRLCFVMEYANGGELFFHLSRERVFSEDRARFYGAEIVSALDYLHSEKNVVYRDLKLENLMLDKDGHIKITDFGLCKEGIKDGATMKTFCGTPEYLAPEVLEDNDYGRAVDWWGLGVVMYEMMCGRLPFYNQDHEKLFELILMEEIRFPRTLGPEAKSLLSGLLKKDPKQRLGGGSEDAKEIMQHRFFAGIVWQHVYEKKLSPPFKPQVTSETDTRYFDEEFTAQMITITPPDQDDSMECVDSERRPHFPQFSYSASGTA

AKT2 = target: T2, AKT2 (Homo sapiens, UniProt P31751); test: Live cell AKT2 target engagement by NanoBRET competitive probe displacement in HEK293 cells; type: binding; details: 2 h at 37° C., read-out: AKT2 IC50
T2 construct: expressed in transfected cells; host or cells: HEK293
T2 sequence (P31751 whole entry): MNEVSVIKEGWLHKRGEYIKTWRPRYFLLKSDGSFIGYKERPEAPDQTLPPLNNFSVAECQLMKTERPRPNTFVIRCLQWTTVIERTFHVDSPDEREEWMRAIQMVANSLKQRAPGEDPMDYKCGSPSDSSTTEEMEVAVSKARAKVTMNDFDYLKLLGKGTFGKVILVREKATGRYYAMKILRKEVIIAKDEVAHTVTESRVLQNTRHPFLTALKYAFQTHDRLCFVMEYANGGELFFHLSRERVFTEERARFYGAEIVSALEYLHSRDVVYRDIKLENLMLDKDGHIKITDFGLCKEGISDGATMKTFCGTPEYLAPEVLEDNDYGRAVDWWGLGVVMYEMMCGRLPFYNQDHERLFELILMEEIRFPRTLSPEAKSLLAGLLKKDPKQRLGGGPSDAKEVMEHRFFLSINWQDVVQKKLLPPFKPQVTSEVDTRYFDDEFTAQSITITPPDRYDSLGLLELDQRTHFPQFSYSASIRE

AKT1 E17K = target: T3, AKT1 E17K (Homo sapiens, UniProt P31749, E17K); test: Live cell AKT1 E17K target engagement by NanoBRET competitive probe displacement in HEK293 cells; type: binding; details: 2 h at 37° C.
T3 construct: expressed in transfected cells; host or cells: HEK293
T3 sequence (P31749 whole entry E17K): as the sequence (P31749 whole entry) above, with E17K counted along it
Method in brief: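 Read-out: BRET ratio E600/E460 from luminescence at 460 and 600 nm, fitted to a log(inhibitor) vs. response Hill equation for IC50. Intact HEK293 cells expressing NanoLuc-tagged kinase, compound dilutions with ~EC50 ATP-competitive fluorescent tracer, 2 h, 37° C.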

[2] = NanoBRET live cell target engagement, HEK293 cells
[3] = NanoBRET competitive probe displacement, live HEK293 cells

SMILES	IC50 ([1]; Homo sapiens, LAPC4, 72 h)	IC50 (AKT1 WT; [2])	IC50 (AKT2; [2])	IC50 (AKT1 E17K; [2])	IC50 (AKT1 WT; [3])	IC50 (AKT2; [3])	IC50 (AKT1 E17K; [3])	IC50 [1]
Nc1ncccc1-c1nc2ccc(-n3cccn3)nc2n1-c1ccc2c(c1)CC[C@@H]2NC(=O)Cc1ccccn1 [Compound 50, (S)—N-(5-(2-(2-aminopyridin-3-yl)-5-(1H-pyrazol-1-yl)-3H-imidazo[4,5-b]pyridin-3-yl)-2,3-dihydro-1H-inden-1-yl)-2-(pyridin-2-yl)acetamide]	> 10000 nM	279 nM	3740 nM	> 1000 nM	–	–	–	–
Cc1cncc(C(=O)N[C@H]2CCc3cc(-n4c(-c5cccnc5N)nc5ccc(-n6cccn6)nc54)ccc32)c1 [Compound 30, (S)—N-(5-(2-(2-aminopyridin-3-yl)-5-(1H-pyrazol-1-yl)-3H-imidazo[4,5-b]pyridin-3-yl)-2,3-dihydro-1H-inden-1-yl)-5-methylnicotinamide]	721 nM	10.6 nM	127 nM	51.1 nM	–	–	–	–
Nc1ncccc1-c1nc2ccc(-n3cccn3)nc2n1-c1ccc2c(c1)CC[C@@H]2NC(=O)c1ccnnc1 [Compound 33, (S)—N-(5-(2-(2-aminopyridin-3-yl)-5-(1H-pyrazol-1-yl)-3H-imidazo[4,5-b]pyridin-3-yl)-2,3-dihydro-1H-inden-1-yl)pyridazine-4-carboxamide]	3750 nM	19.6 nM	321 nM	> 1000 nM	–	–	–	–
Cc1cc(C(F)F)ncc1C(=O)N[C@H]1CCc2cc(-n3c(-c4cccnc4N)nc4ccc(-n5cccn5)nc43)ccc21 [Compound 56, (S)—N-(5-(2-(2-aminopyridin-3-yl)-5-(1H-pyrazol-1-yl)-3H-imidazo[4,5-b]pyridin-3-yl)-2,3-dihydro-1H-inden-1-yl)-6-(difluoromethyl)-4-methylnicotinamide]	1630 nM	12.2 nM	43.3 nM	143 nM	–	–	–	–
Nc1ncccc1-c1nc2ccc(-n3cccn3)nc2n1-c1ccc2c(c1)CC[C@@H]2NC(=O)c1ccc2nccn2c1 [Compound 17, (S)—N-(5-(2-(2-aminopyridin-3-yl)-5-(1H-pyrazol-1-yl)-3H-imidazo[4,5-b]pyridin-3-yl)-2,3-dihydro-1H-inden-1-yl)imidazo[1,2-a]pyridine-6-carboxamide]	1020 nM	5.78 nM	90.6 nM	41.2 nM	–	–	–	–
Nc1ncccc1-c1nc2ccc(-n3cccn3)nc2n1-c1ccc2c(c1)CC[C@@H]2NC(=O)c1ccnc(OC(F)(F)F)c1 [Compound 64, (S)—N-(5-(2-(2-aminopyridin-3-yl)-5-(1H-pyrazol-1-yl)-3H-imidazo[4,5-b]pyridin-3-yl)-2,3-dihydro-1H-inden-1-yl)-2-(trifluoromethoxy)isonicotinamide]	2620 nM	4.63 nM	183 nM	159 nM	–	–	–	–
Nc1ncccc1-c1nc2ccc(-n3cccn3)nc2n1-c1ccc2c(c1)CC[C@@H]2NC(=O)c1ccccn1 [Compound 36, N-[(1S)-5-[2-(2-aminopyridin-3-yl)-5-(pyrazol-1-yl)imidazo[4,5-b]pyridin-3-yl]-2,3-dihydro-1H-inden-1-yl]pyridine-2-carboxamide]	3460 nM	58.6 nM	1250 nM	164 nM	–	–	–	–
COC1(C(F)F)CC(C(=O)N[C@H]2CCc3cc(-n4c(-c5cccnc5N)nc5ccc(-n6cccn6)nc54)ccc32)C1 (single isomer, unassigned) [Compound 10]	> 10000 nM	390 nM	> 10000 nM	> 1000 nM	–	–	–	–
Nc1ncccc1-c1nc2ccc(-n3cccn3)nc2n1-c1ccc2c(c1)CC[C@@H]2NC(=O)c1ccnc2c1CCO2 [Compound 225]	8430 nM	11.3 nM	343 nM	408 nM	–	–	–	–
Cn1c(C(=O)N[C@H]2CCc3cc(-n4c(-c5cccnc5N)nc5ccc(-n6cccn6)nc54)ccc32)cc2ccccc2c1=O [Compound 8, N—{(S)-5-[2-(2-amino-3-pyridyl)-5-(1-pyrazolyl)-3H-1,3,4-triazainden-3-yl]-1-indanyl}-2-methyl-1-oxo-1,2-dihydro-3-isoquinolinecarboxamide]	523 nM	2.97 nM	55.8 nM	10.8 nM	–	–	–	–
Nc1ncccc1-c1nc2ccc(-n3cccn3)nc2n1-c1ccc2c(c1)CC[C@@H]2NC(=O)c1cncnc1C(F)F [Compound 116]	5240 nM	10.2 nM	303 nM	157 nM	–	–	–	–
Nc1ncccc1-c1nc2ccc(-n3cccn3)nc2n1-c1ccc2c(c1)CC[C@@H]2NC(=O)c1cnc(C(F)F)c(F)c1 [Compound 62, (S)—N-(5-(2-(2-aminopyridin-3-yl)-5-(1H-pyrazol-1-yl)-3H-imidazo[4,5-b]pyridin-3-yl)-2,3-dihydro-1H-inden-1-yl)-6-(difluoromethyl)-5-fluoronicotinamide]	692 nM	4.97 nM	59.5 nM	64 nM	–	–	–	–
Cc1ccc(C(=O)N[C@H]2CCc3cc(-n4c(-c5cccnc5N)nc5ccc(-n6ccc(F)n6)nc54)ccc32)cn1 [Compound 52, (S)—N-(5-(2-(2-aminopyridin-3-yl)-5-(3-fluoro-1H-pyrazol-1-yl)-3H-imidazo[4,5-b]pyridin-3-yl)-2,3-dihydro-1H-inden-1-yl)-6-methylnicotinamide]	915 nM	11.6 nM	128 nM	357 nM	–	–	–	–

Next, values leading:

IC50 ([1]; Homo sapiens, LAPC4, 72 h)	IC50 (AKT1 WT; [2])	IC50 (AKT2; [2])	IC50 (AKT1 E17K; [2])	IC50 (AKT1 WT; [3])	IC50 (AKT2; [3])	IC50 (AKT1 E17K; [3])	IC50 [1]	SMILES
3680 nM	112 nM	> 10000 nM	> 1000 nM	–	–	–	–	Nc1ncccc1-c1nc2ccc(-n3nccn3)nc2n1-c1ccc2c(c1)CC[C@@H]2NC(=O)c1cnc(C(F)F)cn1 [Compound 288]
1710 nM	–	–	–	9.56 nM	1080 nM	101 nM	–	Nc1ncccc1-c1nc2ccc(-n3nccn3)nc2n1-c1ccc2c(c1)CC[C@@H]2NC(=O)c1cnc(C(F)F)s1 [Compound 427]
–	28.7 nM	674 nM	247 nM	–	–	–	3140 nM	Nc1ncccc1-c1nc2ccc(-n3cccn3)nc2n1-c1ccc2c(c1)CC[C@@H]2NC1CCN(c2ccccn2)C1 (some centres unmarked) [Compound 388]
285 nM	–	–	–	5.37 nM	351 nM	23.6 nM	–	Nc1ncccc1-c1nc2ccc(-n3nccn3)nc2n1-c1ccc2c(c1)CC[C@@H]2NC(=O)c1ccc(C2CC2)nc1 [Compound 491]
3710 nM	–	–	–	21.7 nM	1340 nM	> 1000 nM	–	Nc1ncccc1-c1nc2ccc(-n3cccn3)nc2n1-c1ccc2c(c1)CC[C@@H]2NC1CN(C(=O)C2CC2)C1 [Compound 441]
4240 nM	12.6 nM	1280 nM	248 nM	–	–	–	–	Nc1ncccc1-c1nc2ccc(-n3nccn3)nc2n1-c1ccc2c(c1)CC[C@@H]2NC(=O)c1ccnc2occc12 [Compound 379]
> 10000 nM	–	–	–	101 nM	1480 nM	> 1000 nM	–	CN(C)C(=O)N1CCC(N[C@H]2CCc3cc(-n4c(-c5cccnc5N)nc5ccc(-n6cccn6)nc54)ccc32)CC1 [Compound 394]
> 10000 nM	15.8 nM	105 nM	31.8 nM	–	–	–	–	Cn1nc(C(=O)N[C@H]2CCc3cc(-n4c(-c5cccnc5N)nc5ccc(-n6cccn6)nc54)ccc32)c2c1OCC2 [Compound 390]
624 nM	–	–	–	7.99 nM	98 nM	30.6 nM	–	Nc1ncccc1-c1nc2ccc(-n3ccc(N4CCOCC4)n3)nc2n1-c1ccc2c(c1)CC[C@@H]2NC1CCN(C(=O)C2CC2)CC1 [Compound 488]
3820 nM	–	–	–	15 nM	794 nM	655 nM	–	Nc1ncccc1-c1nc2ccc(-n3cccn3)nc2n1-c1ccc2c(c1)CC[C@@H]2NC1CN(c2ccccn2)C1 [Compound 439]
4210 nM	–	–	–	10.9 nM	2730 nM	108 nM	–	Cc1ccc(C(=O)N[C@H]2CCc3cc(-n4c(-c5ccccc5F)nc5ccc(-n6cccn6)nc54)ccc32)cn1 [Compound 401]
2250 nM	19.7 nM	103 nM	257 nM	–	–	–	–	Nc1ncccc1-c1nc2ccc(-c3ccccc3)nc2n1-c1ccc2c(c1)CC[C@@H]2NC1CCN(C(=O)C2CC2)CC1 [Compound 391]
2340 nM	8.14 nM	211 nM	68.1 nM	–	–	–	–	Nc1ncccc1-c1nc2ccc(-n3cccn3)nc2n1-c1ccc2c(c1)CC[C@@H]2NC(=O)c1ccc(F)c(F)c1 [Compound 262]
> 7160 nM	17.6 nM	1310 nM	> 487 nM	–	–	–	–	Nc1ncccc1-c1nc2ccc(-n3cccn3)nc2n1-c1ccc2c(c1)CC(F)[C@@H]2NC1CCN(C(=O)C2CC2)CC1 (single isomer, unassigned) [Compound 386]
875 nM	5.79 nM	20 nM	23.8 nM	–	–	–	–	COc1cc(C(=O)N[C@H]2CCc3cc(-n4c(-c5cccnc5N)nc5ccc(-n6cccn6)nc54)ccc32)c(C)cn1 [Compound 357]
5270 nM	–	–	–	24.3 nM	1750 nM	> 1000 nM	–	COc1ccn(-c2ccc3nc(-c4cccnc4N)n(-c4ccc5c(c4)CC[C@@H]5NC4CCN(C(=O)C5CC5)CC4)c3n2)n1 [Compound 440]
